# Laboratory results: PubChem BioAssay (NCI)
#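 48-hour exposure; five concentrations; linearly interpolated endpoints. The concentration for 50% growth inhibition is given as GI50. Definition used: TGI = concentration required for complete inhibition of growth.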
# Tests used:
# Assay in all cases: NCI-60 cell line screen, 48 h
# SW-620 colon = test system: SW-620 colon
# SN12C renal = test system: SN12C renal
# A549 NSCLC = test system: A549 NSCLC
# COLO 205 colon = test system: COLO 205 colon
# HL-60(TB) leukemia = test system: HL-60(TB) leukemia
# OVCAR-5 ovarian = test system: OVCAR-5 ovarian
# A498 renal = test system: A498 renal
# OVCAR-8 ovarian = test system: OVCAR-8 ovarian
# SK-OV-3 ovarian = test system: SK-OV-3 ovarian
# DU-145 prostate = test system: DU-145 prostate
SMILES,TGI (SW-620 colon) [µM],TGI (SN12C renal) [µM],TGI (A549 NSCLC) [µM],TGI (COLO 205 colon) [µM],TGI (HL-60(TB) leukemia) [µM],TGI (OVCAR-5 ovarian) [µM],TGI (A498 renal) [µM],TGI (OVCAR-8 ovarian) [µM],TGI (SK-OV-3 ovarian) [µM],TGI (DU-145 prostate) [µM],GI50 (SW-620 colon) [µM],GI50 (SN12C renal) [µM],GI50 (A549 NSCLC) [µM],GI50 (COLO 205 colon) [µM],GI50 (HL-60(TB) leukemia) [µM],GI50 (OVCAR-5 ovarian) [µM],GI50 (DU-145 prostate) [µM],GI50 (OVCAR-8 ovarian) [µM],GI50 (SK-OV-3 ovarian) [µM],GI50 (A498 renal) [µM]
O=C(CNC(=O)OCc1ccccc1)Oc1ccccc1,> 100,> 100,> 100,> 100,> 100,> 100,> 100,> 100,> 100,,,,,,,,,,,
C1CNCCNCCNCCN1,> 100,> 100,> 100,> 100,> 100,> 100,> 100,> 100,> 100,,,,,,,,,,,
c1cc2c(cc1C(N1CCNCC1)N1CCNCC1)OCO2,> 100,> 100,> 100,> 100,,> 100,> 100,> 100,> 100,> 100,,,,,,,,,,
CCCCCCCCCCC(C)CCCCCCC(=O)OCC(COP(=O)([O-])OCC[N+](C)(C)C)OC(=O)CCCCCCC(C)CCCCCCCCCC (stereo not given),> 100,> 100,> 100,> 100,> 100,> 100,> 100,> 100,> 100,,,,,,,,,,,
COc1ccc(C(=O)C(c2ccc(OC)cc2)C2(O)C(=O)Nc3c(C)cc(Cl)cc32)cc1 (stereo not given),> 100,> 100,> 100,> 100,> 100,> 100,> 100,> 100,> 100,,,,,,,,,,,
S=c1[nH]c(=S)c2sc(=S)n(-c3ccccc3)c2[nH]1,> 100,> 100,> 100,> 100,> 100,> 100,> 100,> 100,> 100,,,,,,,,,,,
COC(=O)COc1ccc(/C=C2\N=C(c3ccccc3)N(c3cc(C(F)(F)F)ccc3Cl)C2=O)cc1,> 100,> 100,> 100,> 100,63.4,> 100,,> 100,> 100,> 100,62.1,> 100,> 100,54.4,27.3,> 100,51.5,40.4,> 100,
Nc1nc(Nc2ccc3c(c2)CC[C@@H](N2CCCC2)CC3)nn1-c1cc2c(nn1)-c1ccccc1CCC2,3.44,,3.57,,,3.29,1.44,,3.34,3,1.7,,1.63,,,1.63,1.35,,1.66,0.0249
CC(=O)OCSc1ncnc2c1ncn2CN1CCOCC1,> 100,> 100,> 100,53.1,> 100,> 100,> 100,> 100,> 100,,,,,,,,,,,
CC1(C)COCN1COC1CCCCC1,> 100,> 100,> 100,> 100,,> 100,> 100,> 100,> 100,> 100,,,,,,,,,,
CCCCCCCCCNCCCCCCCCC,3.48,3.25,4.08,3.22,,3.91,24.5,4.66,3.83,3.74,1.76,1.59,2.04,1.77,,1.88,1.85,2.19,2.04,9.79
O=C(NC1CC1)c1ccc(-c2nc3ccc4[nH]ncc4c3c3c2CCCC3)cc1,10.3,20.7,> 50,10.4,6.99,47.6,5.01,> 50,,20.2,1.41,2.24,1.63,1.8,1.59,7.3,2.43,2.34,,1.03
C=C1C(=O)O[C@@H]2C1C[C@@H](O)/C(C)=C/C/C=C(\C)CCC[C@H](C)[C@H]2OC(C)=O (stereo not given in full),58.9,66.3,> 100,> 100,,> 100,> 100,> 100,> 100,45.4,26,27.2,35.8,40.4,,56.3,20.4,35.5,69.3,54
CC(C)=CC(=O)Oc1ccc([N+](=O)[O-])cc1,> 100,> 100,> 100,> 100,59.5,> 100,> 100,> 100,> 100,,,,,,,,,,,
